Test: in vitro
Conditions: human, hela cells

Row | Compound | viability at 28.5 h, 10 µM (% viability) [%] | viability at 28.5 h, 10 µM [%]
1 | CC(C)(C)OC(=O)N1CCN(Cc2ccn(Cc3ccc(S(C)(=O)=O)cc3)c2)CC1 [CBK144936] | 119 | 
2 | O=C(O)CCCC(=O)Nc1cccc([N+](=O)[O-])c1 [CBK261530] | 101 | 
3 | CC(NC(=O)N1CCSCC1)c1ccc2c(c1)CC(=O)N2 (centres unmarked) [CBK305093] | 96.7 | 
4 | N=c1n(CC(=O)O)c2ccccc2n1Cc1ccccc1 [CBK286531] | 108 | 
5 | CS(=O)(=O)N(Cc1ccc(Cl)cc1)c1ccc(C(=O)Nc2cccnc2)cc1 [CBK263334] | 95.3 | 
6 | Cc1cc(C)[n+](-c2nccs2)c(C)c1 [CBK008782G] | 103 | 
7 | O=C(Nc1c(F)cccc1F)N(Cc1cc(F)cc(F)c1)CC1CCNCC1 [CBK049795] | 90.5 | 
8 | O=C(O)CCN1CCN(c2ccc(F)cc2)CC1 [CBK287262] | 79.6 | 
9 | OC(CN1CCN(Cc2ccc3c(c2)OCO3)CC1)c1ccccc1 (centres unmarked) [CBK074759] | 82.8 | 
10 | Cc1ccc(O)c(NC(=O)Cn2nc([N+](=O)[O-])c(Br)c2C)c1 [CBK261718] | 92.2 | 
11 | CC1CN(C(=O)COc2ccccc2OC(=O)N(C)C)CC(C)O1 (centres unmarked) [CBK057627] |  | 121
12 | O=C(O)COCC(=O)N1CCN(C(c2ccccc2)c2ccccc2)CC1 [CBK232579] | 84.3 | 
13 | CN(CC1OCCc2ccccc21)C(=O)CCC1CCCO1 (centres unmarked) [CBK282030] | 87.1 | 
14 | Cc1nn(C)cc1CNC(=O)c1cc2ncc(Br)cn2n1 [CBK304336] | 102 | 
15 | Clc1cccc(-c2cncc(NCc3ccc4c(c3)OCO4)n2)c1 [CBK065323] | 94.8 | 
16 | Cn1ccnc1C1(O)CC2CCC(C1)N2C(=O)c1ccco1 (centres unmarked) [CBK284179] | 81.7 | 
17 | COc1cc(C(=O)Nc2cc(-c3nc4ncccc4o3)ccc2C)ccc1OCc1ccc(Cl)cc1 [CBK264704] | 112 | 
18 | CCSc1ccnc2c1c(=O)n(C)c(=O)n2C [CBK287749] | 98.9 | 
19 | COc1ccc(Cl)cc1NC(=S)NNC(=O)c1cc(C)nc2ccccc12 [CBK266920] | 50.5 | 
20 | CCCNc1nc(-c2cc(OC)c(OC)c(OC)c2)cn2ccnc12 [CBK066363] | 99.2 | 
21 | CCc1ccc(CNC(=O)Cn2nnc(-c3ccc(C(C)N4CCC(C)CC4)cc3)n2)cc1 (centres unmarked) [CBK164199T] | 97.5 | 
22 | O=C(COc1ccc(Cl)cc1Cl)OCCNC1=NS(=O)(=O)c2ccccc21 [CBK264905] | 110 | 
23 | CC1c2ccsc2CCN1C(=O)c1ccnn1C(C)C (centres unmarked) [CBK282079] | 89.2 | 
24 | CCSc1nc2ccccc2n1C(=O)c1ccc(S(=O)(=O)N2CCCCCC2)cc1 [CBK265825] | 91.6 | 
25 | COc1ccc(Nc2nc(N)nc(CSc3nnc(N)s3)n2)cc1 [CBK266682] | 90.6 | 
26 | O=C(CCC1CCCC1)n1ccn(C(c2ccccc2)c2ccccc2)c1=O [CBK106619] | 103 | 
27 | Cc1ccc(C)c(-c2nn(-c3ccccc3)cc2/C=C2\SC(=S)N(CC(=O)O)C2=O)c1 [CBK264541] | 98.4 | 

Row | Compound | viability at 28.5 h, 10 µM (% viability) [%] | viability at 28.5 h, 10 µM [%]
28 | O=C(O)CCC(=O)Nc1ccc(Br)cc1C(=O)c1ccc(Cl)cc1 [CBK262601] | 86.7 | 
29 | Cc1ccc2c(c1)OC(C)(C)CC2NS(C)(=O)=O (centres unmarked) [CBK307620] | 81.5 | 
30 | CCn1c(Cc2c(C)[nH]c3ccccc23)nnc1SCC(=O)NC12CC3CC(CC(C3)C1)C2 [CBK267529] | 89.3 | 
31 | Cc1cc(OCC(=O)O/N=C(\N)Cc2ccc([N+](=O)[O-])cc2)ccc1Cl [CBK264322] | 98.2 | 
32 | Cc1cccc(OCC(C)NC(=O)NCCc2cnn(C)c2)c1 (centres unmarked) [CBK304887] | 98.5 | 
33 | O=C(CSc1nnc(Cc2ccccc2)n1-c1ccc(Cl)cc1)Nc1cc(Cl)ccc1O [CBK269061] | 99.9 | 
34 | CS(=O)(=O)N1CC[C@H](c2nc3cc(Cl)ccc3o2)C1 [CBK289370] | 86 | 
35 | CC1CCc2noc(C3CCCN(C(=O)c4ccco4)C3)c2C1 (centres unmarked) [CBK282865] | 110 | 
36 | Cc1cc2ncc3c(n2n1)CC1CCC3N1Cc1ccc(C)o1 (centres unmarked) [CBK284412] | 88.9 | 
37 | COC(=O)c1sc2ncccc2c1NS(=O)(=O)Cc1ccccc1[N+](=O)[O-] [CBK049974] | 102 | 
38 | CC1(C)OCC2(CCN(C(C)(C)C)CC2)O1 [CBK038298] | 93.2 | 
39 | O=C(NC(=S)Nc1ccc(-c2ccc(CO)o2)cc1)c1ccc2c(c1)OCCO2 [CBK269038] | 82.9 | 
40 | CCS(=O)(=O)Nc1cc([N+](=O)[O-])ccc1OC [CBK111343] | 97 | 
41 | Cc1nc2c(OCCOc3ccccc3)cccn2c1N(C)CC1CC1 [CBK147272] | 96.8 | 
42 | CC(C)c1nn(CN(C)Cc2ccccc2)c(=S)[nH]1 [CBK295166] | 102 | 
43 | N#Cc1ccc(NC(=O)CCn2cnnn2)cc1 [CBK269832] | 91.4 | 
44 | O=C(Cn1c(-c2cccs2)cc2cccnc21)N1CCCC1 [CBK282453] | 83 | 
45 | CCCCc1cc(C[C@@H]2C[C@H](NS(C)(=O)=O)C2(C)C)no1 [CBK289702] | 105 | 
46 | CC(C)(C)NC(=O)CN1CCN(C(=O)CSc2n[nH]c(=O)n2C2CC2)CC1 [CBK295641] | 94.5 | 
47 | CCc1nccn1CCC(=O)N1CC(OCc2ccccc2F)C1 [CBK306597] | 88.5 | 
48 | CC(=O)N[C@H](C(=O)N1CC[C@H]2NC(=O)[C@@H](Cc3ccccc3)NC(=O)C3(C/C=C/C[C@H]2C1)CCOCC3)[C@@H](C)OC(C)(C)C [CBK292203] | 103 | 
49 | COc1cccc(C(=O)Nc2ccc(O)c(C)c2)c1 [CBK264413] | 88.1 | 
50 | O=C(O)CSc1nnc(-c2ccncc2)n1-c1ccccc1 [CBK264426] | 109 | 
51 | CC(C)(CO)C(O)C(=O)NC1CCCC(C(=O)O)C1 (centres unmarked) [CBK286609] | 96 | 
52 | O=C(O)c1cc(C(=O)O)cc(N2C(=O)C3C4C=CC(C4)C3C2=O)c1 (centres unmarked) [CBK261193] | 97.5 | 
53 | Nc1nnc(CSCc2ccc(Cl)cc2Cl)s1 [CBK263471] | 100 | 
54 | CCNC(=O)Nc1ccccc1C(=O)NC1CCCCC1 [CBK175266] | 89.6 | 

Row | Compound | viability at 28.5 h, 10 µM (% viability) [%] | viability at 28.5 h, 10 µM [%]
55 | CN1CC=C(/C=C/c2c[nH]c3ccccc23)CC1 [CBK283602] | 89.4 | 
56 | O=C(c1cccc(Cl)c1)N1CCC(O)(c2cccnc2)CC1 [CBK283553] | 93.2 | 
57 | O=[N+]([O-])c1ccc(CN2CCC(N3CCN(CCO)CC3)CC2)cc1 [CBK264621G] | 92.6 | 
58 | CC(=O)c1ccc(C(=O)Nc2sc3c(c2C#N)CCN(C(C)=O)C3)cc1 [CBK304418] | 84.8 | 
59 | CC(Oc1ccc(-c2ccccc2)cc1)C(=O)Nc1ccc2c(c1)OCCO2 (centres unmarked) [CBK268002] | 92.3 | 
60 | CC(C)(C)c1cn2c3ccccc3nc2n1CCO [CBK273412] | 102 | 
61 | O=C(CSc1nnc(-c2ccncc2)s1)Nc1ccc(Cl)cc1 [CBK270069] | 87.9 | 
62 | Oc1cccc(OCCOc2nccnc2N2CCCC2)c1 [CBK115756] | 85.5 | 
63 | Cn1nccc1CCC(=O)N1CC[C@H]2NC(=O)c3ccccc3OCCCCC[C@H]2C1 [CBK292028] | 97.4 | 
64 | Cc1nc2ccccc2n1CC(=O)NCCN1CCCC1 [CBK267336] | 113 | 
65 | O=C(O)CCSc1nc2ccccc2nc1C(F)(F)F [CBK107866] | 93.7 | 
66 | C=CCn1cc(CN2CCCC(O)(c3ccc(F)cc3)CC2)c(C)n1 (centres unmarked) [CBK285144] | 92 | 
67 | CN(C)CC(=O)N1Cc2cccc3c2c(cn3S(=O)(=O)c2ccccc2)C1 [CBK155548T] | 94.5 | 
68 | COCCn1c(SCc2cn3c(C)cccc3n2)nc(C)c1C [CBK304050] | 83.9 | 
69 | COc1ccc(CC(=O)NC(c2nnc3ccccn23)C(C)C)cc1 (centres unmarked) [CBK304607] | 89.4 | 
70 | CCC(Cc1ccccc1C)c1cc(O)c(C(c2ccccc2)C2CC2)c(=O)o1 (centres unmarked) [CBK016783] | 98.3 | 
71 | Cn1c(Cc2csc(N)n2)nnc1SCC(=O)NC1CCCCC1 [CBK268787] | 84.3 | 
72 | C[C@@H]1[C@H]2C[C@@H](C[C@H]1NC1=NC(=O)C(CC(=O)O)S1)C2(C)C (some centres unmarked) [CBK059514] | 93.8 | 
73 | N#Cc1c2c(c(-c3ccccc3)[nH]c1=O)CCCC2 [CBK287905] | 91.6 | 
74 | O=C(c1sc2cc(Cl)ccc2c1Cl)N1CCN(Cc2ccc3c(c2)OCO3)CC1 [CBK074431] | 101 | 
75 | CN(C)CC1CCCN(C(=O)c2cc3cc(Cl)ccc3n2C)C1 (centres unmarked) [CBK282121] | 111 | 
76 | NS(=O)(=O)c1ccc(NC(=O)CSc2nc3sc4c(c3c(=O)[nH]2)CCC4)cc1 [CBK265554] | 103 | 
77 | C=CCn1c(-c2sc(NC(=O)c3[nH]c4c(c3C)C(=O)CC(C)(C)C4)nc2C)n[nH]c1=S [CBK297757] | 91 | 
78 | O=C(c1cnn(-c2ccccc2)c1)N1CCc2[nH]c3ccccc3c2C1 [CBK281853] | 74.1 | 
79 | COc1cc(CNc2cncc(-c3cccc(C(=O)NCCO)c3)n2)cc(OC)c1OC [CBK065421] | 98.5 | 
80 | O=C(COc1ccc2c(c1)OCO2)N1CCN(Cc2ccccc2)CC1 [CBK269977] | 84.8 | 
